Assay results from US20250262209A1, “TREATMENT OF GASTROINTESTINAL DISEASES” (Aclipse Two, Inc., priority 2022, published 2025).

Key:
[1] = tested on: monocytes differentiated to M1 macrophage; experiment: M1 macrophage differentiation assay; format: cell-based, human; conditions: TNF-α, IL-1b, IL-6, IL-12, IL-23 in supernatant on day 7 (MSD); concentrations of Table 9
Source text: The purpose of this study was to evaluate the effects of lobeglitazone and other thiazolidinediones on M1 macrophage differentiation. The test articles and vehicles used in this study were lobeglitazone sulfate, pioglitazone HCl, and rosiglitazone.
M1 macrophage differentiation assay timeline was as follows in Table 8.
Drug concentrations tested in the M1 differentiation assay are as in Table 9.
• (1) Revive frozen monocytes. • (2) Count cells and adjust the cell density to 0.5×10^6 cells/ml with fresh complete differentiation medium (RPMI1640+10% FBS+1% PS plus GM-CSF or M-CSF at 50 ng/ml). • (3) Seed isolated monocyte 100 μL per well on 96-well plate. • (4) Add test articles as the plate map using D300e (final concentration in μM). • (5) Differentiate the monocyte to macrophage in the presence of GM-CSF to M1, or M-CSF to M2 for 5 days. • (6) On day 5, add cytokines at 2× final concentration. • (6a) Prepare medium containing GM-CSF for M1 and M-CSF for M2. • (6b) Add corresponding activator to reach 2× final working concentration: (i) IFNγ stock 0.2 mg/ml: add 2.5 μL stock into 5 ml complete differentiation medium for 100 ng/ml; (ii) LPS stock 1.0 mg/ml: dilute to 20 μg/ml by mixing 2 μL stock into 100 μl medium; then add 10 μl 20 μg/ml LPS to 5 ml complete differentiation medium for 40 ng/ml; (iii) IL-4 stock 0.1 mg/ml: dilute 2 μL stock into 5 ml complete differentiation medium for 40 ng/ml. • (6c) Add 100 μL cytokine containing differentiating medium to each well, and total volume of each well is 200 μL. • (6d) Add test compound again using D300e. Make sure to set the final volume as 200 μL. • (7) Incubate cytokine and test compound for 48 hours. • (8) On day 7, spin down the plates at 300×g for 5 min and collect the supernatant for cytokine quantification using MSD. • (9) M1 associated macrophage cytokines TNF-α, IL-1b, IL-6, IL-12, and IL-23 were quantified.

[2] = tested on: colon of DSS-induced IBD model mice; experiment: Colon histology (H&E score, PAS goblet cells) in the DSS-induced IBD model; format: in vivo; conditions: vs model
Protocol: H&E staining: Colon sections were cut at 4 μm in thickness, dried in an oven for 1 hour and stained with H&E solution with our standard protocol. Briefly, the sections were stained with hematoxylin solution for 90 seconds. Then stain in eosin solution for 30 seconds. Then dehydrated and coverslipped for the subsequent image analysis. H&E stained images was scanned using LEICA Aperio® GT450. The severity of inflammatory cell infiltration and tissue damage were semi-quantitatively evaluated according to pathology score criteria in Table 7.
PAS staining: Colon sections were cut at 4 μm in thickness, dried in an oven for 1 hour and stained with PAS kit (Gefan #M035) with our standard protocol. Briefly, the sections were stained with periodic acid working solution for 8 minutes. Then wash with distilled water for 5 minutes, three times. Stain in Schiff solution for 10 minutes. Transform to distilled water for 5 minutes, three times. Then dehydrated and coverslipped for the subsequent image analysis.
The total length of the colon was measured by a ruler and then was divided into 3 segments, 100 microns in the middle of each segment was taken out for goblet cell calculation. In each 100 microns of colon tissue, the number of goblet cells was calculated, then the average number of goblet cells from three parts was used for next analysis.
In vivo animal data were presented as mean±SEM. Statistical analysis was performed by one-way ANOVA followed by Dunnett's multiple comparison. […] The difference was considered significance when p<0.05.

SMILES: COc1ccc(Oc2cc(N(C)CCOc3ccc(CC4SC(=O)NC4=O)cc3)ncn2)cc1 (stereo not shown) [lobeglitazone, 5-(4-(2-((6-(4-Methoxyphenoxy)pyrimidin-4-yl)(methyl)amino)ethoxy)benzyl)thiazolidine-2,4-dione]
- M1 macrophage cytokines expression [1]: did not show the promotion
- H&E total score (inflammation/tissue damage) ([2]; 0.36 mg/kg PO QD 10 days): led to decrease
- number of goblet cells (PAS staining) ([2]; 0.36 mg/kg PO QD 10 days): trended to increase
- H&E total score (inflammation/tissue damage) ([2]; 1.20 mg/kg PO QD 10 days): led to decrease
- number of goblet cells (PAS staining) ([2]; 1.20 mg/kg PO QD 10 days): trended to increase
- H&E total score (inflammation/tissue damage) ([2]; 3.61 mg/kg PO QD 10 days): led to decrease
- number of goblet cells (PAS staining) ([2]; 3.61 mg/kg PO QD 10 days): did not change
